From patent publication US20130041005A1, “PHARMACEUTICAL COMPOSITIONS COMPRISING NEUROPILIN INHIBITORS, AND THEIR USE FOR THE PREVENTION AND/OR TREATMENT OF ANGIOGENIC DISORDERS AND CANCERS” (TRAGEX PHARMA, priority 2011, published 2013)

Columns and labels:
Format in all cases: cell-based
[1] = test system: HeLa; assay: WST-1 proliferation assay, HeLa; details: Homo sapiens; for IC50: Cervical HeLa, 72 h, read-out: Anti-proliferative activity IC50 (μM) ± SD; for inhibition at 0.1 µM / inhibition at 0.5 µM / inhibition at 1 µM: HeLa
Source text: Several cancer cell lines were used: breast cancer cells (MDA-MB-231 (ATTCC® Number HTB-26™), MDA-MB-436 (ATTCC® Number HTB-130™), MDA-MB-438, BT-474 (ATTCC® Number HTB-20™)); cervical cancer cells (HeLa (ATTCC® Number CCL-2™)); colon cancer cells (HCT-116 (ATTCC® Number CCL-247™) and HT-29 (ATTCC® Number HTB-38™)); osteosarcoma cells (U2OS (ATTCC® Number HTB-96™)); pancreas cancer cells (MIA PaCa-2 (ATTCC® Number CRL-1420™) and Panc-10.5 (ATTCC® Number CRL-2547™)); prostate cancer cells (PC-3 (ATTCC® Number CRL-1435™) and LNCaP (ATTCC® Number CRL-1740™)); brain cancer cells (U87 glioblastoma (ATTCC® Number HTB-14™) and SH-SYSY neuroblastoma (ATTCC® Number CRL-2266™)).
(§1) All the cancer cell lines were maintained in cultured in DMEM GlutaMAX™ (GIBCO Invitrogen, France, cat no 31966047) enhanced with 10% foetal bovine serum (GIBCO Invitrogen, France, cat no 10270-106) and 1% penicillin G/streptomycin (GIBCO Invitrogen, France, cat no 15140-122). Only Panc-10.5 cells were cultivated in RPMI 1640 medium (Gibco) supplemented with 2 mM L-glutamine, 1.5 g/L sodium bicarbonate, 4.5 g/L glucose, 10 mM HEPES, 1 mM sodium pyruvate, 10 Units/ml human insulin, […] (SVF): 15% (75 ml in 500 ml of medium).
Cells were grown as subconfluent monolayer and cultured in 75 cm^2 flasks at 37° C., 5% CO2 in a humidified atmosphere, and medium was changed every two days. Only cells from passages 2-6 were used for the experiments.
After observation of cells under the microscope, old media were removed and the adherent cells washed gently twice with PBS (Phosphate Buffer Saline, —Ca^2+, —Mg^2+, Lonza cat no: 17-512F/12). All cells were detached with 3 ml of trypsin/EDTA (chelator of calcium and magnesium ions) (Lonza), incubated for 5 min at 37° C., and examined using a microscope to ensure that the cells were detached and floating. Then, 3 ml TNS (Trypsin Neutralizing Solution, Lonza, France, cat no CC-5002) or of culture medium were added to inactivate the trypsin, and the cell suspension was transferred in a falcon and centrifuged for 7 min at 1400 rpm. The supernatant was removed and the cell pellet resuspended in […] of culture medium. 50 μl of this solution were transferred in 20 μl of isotonic solution and the cells were counted by count cellular (Beckman Coulter). At day 0, 200 μl of cellular suspension (3.10^3 cells/well for the HUVEC cells, breast cancer cells (MDA-MB-231 1.10^4 cells/well, MDA-MB-436 1.10^4 cells/well, MDA-MB-438 2.10^4 cells/well, BT-474 2.5.10^4 cells/well); cervical cancer cells (HeLa 5.000 cells/well); colon cancer cells (HCT-116 5.10^3 cells/well, HCT-29 1.1.10^4 cells/well); osteosarcoma cells (U2OS 8.10^3 cells/well); pancreas cancer cells (MIA PaCa-2 5.10^3 cells/well, Panc-10.5 1.5.10^4 cells/well); prostate cancer cells (PC-3 4.10^3 cells/well, LNCaP 2.10^4 cells/well); brain cancer cells (U87 5.10^3 cells/well, SH-SYSY 8.10^4 cells/well)) were then plated on 96 well plates and incubated at 37° C. in a humidified atmosphere of 5% CO2 for 24 h.
At day 1, the compounds 1 or 2 of the invention were added at increasing concentrations (0.1-10 μM) in the wells and plates were incubated at 37° C. in a humidified atmosphere of 5% CO2 for 72 h.
The cell proliferation WST-1 assay is a colorimetric assay for the quantification of cell proliferation and viability, based on the enzymatic cleavage of the tetrazolium salt WST-1 added to the culture medium, to a water soluble colored formazan dye, detected by absorbance at 450 nm, by mitochondrial succinate-tetrazolium reductase in viable cells. An augmentation in enzyme activity will then lead to an increase in the amount of formazan dye formed, which directly correlates to the number of metabolically active cells in the culture.
After an incubation period of 72 h, at day 4, were prepared the 19 ml medium with reagent WST-1 1 ml ([…]). The medium was removed from the 96 microplate and 200 μl of solution WST-1/medium were added for each well. […]

[2] = test system: HCT-116; assay: WST-1 proliferation assay, HCT-116; details: Homo sapiens; HCT-116, 0.05 μM
[3] = test system: U2OS; assay: WST-1 proliferation assay, U2OS; details: Homo sapiens
[4] = test system: DAUDI; assay: WST-1 proliferation assay, DAUDI; details: Homo sapiens; Burkitt's lymphoma DAUDI; read-out: Anti-proliferative activity IC50 (μM) ± SD
Description: as §1
Cells were grown as subconfluent monolayer and cultured in 75 cm^2 flasks at 37° C., 5% CO2 in a humidified atmosphere, and medium was changed every two days. […]
The cell proliferation WST-1 assay is a colorimetric assay for the quantification of cell proliferation and viability, based on the enzymatic cleavage of the tetrazolium salt WST-1 added to the culture medium, to a water soluble colored formazan dye, detected by absorbance at 450 nm, by mitochondrial succinate-tetrazolium reductase in viable cells. […]
After an incubation period of 72 h, at day 4, were prepared the 19 ml medium with reagent WST-1 1 ml ([…]). […] The cells were incubated at 37° C. in a humidified atmosphere of 5% CO2 for 1 h 30 and the absorbance at 450-655 nm was measured by Microplate Manager 5.2 (Bio-Rad).

[5] = test system: HUVEC; assay: Tube maintenance assay; details: VEGF-A165-treated HUVEC in collagen, 24 h treatment (FIG. 3C)
Description: A 96-well plate was coated with 70 μl of collagen/media solution (NaOH 0.1N, 48 μL 10× Na2HCO3 and 0.5 mL EBM2) and allowed to solidify at 37° C. for 3 min. HUVEC were seeded at a density of 8×10^5 cells for well in 100 μl complete culture medium. After confluent monolayer formation, a second collagen gel layer with EBM2 supplemented with 50 ng/ml of VEGF-A165 was added over cells and plates were incubated for 24 h at 37° C. and 5% CO2 to allow tube formation.

Row | Compound | IC50 [1] | inhibition at 0.1 µM [1] | inhibition at 0.5 µM [1] | inhibition at 1 µM [1] | inhibition at 0.05 µM [2] | inhibition at 0.05 µM [3] | IC50 [4] | maintenance of new blood vessels (tube maintenance) [5]
1 | O=C(NC(=S)Nc1cccc(-c2nc3ccccc3[nH]2)c1)c1ccc2c(c1)OCCO2 [Compound 2, N-[3-(1H-benzimidazol-2-yl)phenyl]-N′-(2,3-dihydro-1,4-benzodioxin-6-ylcarbonyl)thiourea] | 0.05 ± 0.04 µM | 62% | 64% | 67% | 25% | 18% | 0.5 ± 0.02 µM | effectively inhibited
2 | Cc1ccc(-c2nc3ccccc3[nH]2)cc1NC(=S)NC(=O)c1ccc2c(c1)OCCO2 [Compound 1, N-[5-(1H-benzimidazol-2-yl)-2-methylphenyl]-N′-(2,3-dihydro-1,4-benzodioxin-6-ylcarbonyl)thiourea] | 0.4 ± 0.04 µM | 13% | 64% | 68% | 0% | 9% | 1 µM | effectively inhibited
